# Marks after values point to notes of the source that are not given here.
# Tested on: acetic acid-induced pain in mice
# Assay: Analgesia: acetic acid-induced writhing
# Type: in vivo
# Conditions: 0.15 g/kg intragastric once per day 7 days
# Protocol: 40 mice, 20-22 g in weight, were randomly divided into 4 groups each having 10 mice, a baicalin (0.067 g/kg) group, a baicalin magnesium (equivalent to 0.067 g/kg of baicalin) group, a blank control group (administrated with normal saline), and an aspirin positive control group (0.15 g/kg). The mice were intragastrically administrated once per day for successive 7 days. After 30 minutes of final administration, the mice were intraperitoneally injected with 0.6% acetic acid saline solution at a dose of 0.2 mL/10 g; the number of writhing responses in the mice within 15 minutes was counted. Analgesia % was calculated as follows: Analgesia %=[(average number of writhing responses of the blank control group−average number of writhing responses of the drug administration group)/average number of writhing responses of the blank control group]×100%. Single-factor variance analysis was performed on data by the SPSS19.0 statistical software, and P<0.05 was of statistical significance.
compound,measurement,setting,value
"CC(=O)Oc1ccccc1C(=O)O [Positive Control, aspirin]",Analgesia %,vs blank control,83.3* %
same,Number of writhing,writhing within 15 minutes after 0.6% acetic acid i.p.,4.43 ± 3.21
